Test results: paper PMC6273431, “The Structure–Antimicrobial Activity Relationships of a Promising Class of the Compounds Containing the N-Arylpiperazine Scaffold” (Molecules, 2016)
Where two headings read alike, the source gives them in different places.

Columns and labels:
[1] = parameters: method as in PMID 16209439, PMID 16209439, doi:10.2478/s11696-006-0007-y; conditions: octan-1-ol/phosphate buffer (pH = 7.4); cited from earlier work
[2] = parameters: method as in PMID 16209439, PMID 16209439; conditions: potentiometric titration; cited from earlier work
[3] = system: Mycobacterium avium subsp. paratuberculosis CIT03; test: antimycobacterial MIC, MB broth, alamarBlue; format: cell-based; conditions: 264 h, read-out: MIC MAP
Method: The Mycobacterium avium subsp. paratuberculosis CIT03 strain was grown in the Middlebrook (MB) broth, supplemented with the Oleic-Albumin-Dextrose-Catalase Supplement (OADC, Becton Dickinson, Oxford, UK) and the mycobactin J (2 μg/mL). The commercially available siderophore mycobactin J reduced the incubation period of M. avium subsp. paratuberculosis in a complex medium when compared to the medium containing the mycobactin P as a growth factor.
The identification of the isolate was performed using biochemical and molecular protocols. At a log phase growth, a culture sample (10 mL) was centrifuged at 15,000 rpm/20 min using a bench top centrifuge (Model CR 4-12, Jouan Inc., London, UK). Following removal of the supernatant, the pellet was washed in fresh Middlebrook 7H9GC broth and re-suspended in fresh supplemented MB broth (10 mL). The turbidity was adjusted to match the McFarland standard No. 1 containing approximately 3.0 × 10^8 Colony Forming Units (CFU) with the MB broth. Further 1:20 dilution of the culture was performed in the MB broth. The susceptibility of given mycobacterial species was investigated in a 96-well plate format. In those experiments, sterile deionised water (300 μL) was added to all outer-perimeter wells of the plates to minimize an evaporation of the medium in the test wells during the incubation process. Each evaluated compound (100 μL) was incubated with the mycobacterial species (100 μL). The dilutions of a particular compound were prepared in triplicate. For all inspected derivatives, final concentrations ranged from 1000 μg/mL to 60 μg/mL. All compounds were prepared in dimethyl sulfoxide (DMSO; Sigma-Aldrich, Irvine, UK) and subsequent dilutions were made in the supplemented MB broth. The plates were sealed with a parafilm and incubated at 37 °C for 11 days. Following the incubation, a 10% addition of a water‑soluble dye, the alamarBlue reagent (AbD Serotec, Kidlington, UK), was mixed into each well. Absorbance readings at 570 nm and 600 nm were taken, initially for background subtraction and after 24 h re-incubation. The subtraction is necessary for strongly coloured compounds, where the colour may interfere with the interpretation of any colour change. For non-interfering compounds, a blue colour in a well was interpreted as an absence of a growth and a pink colour was scored as a growth.
The minimum inhibitory concentration (MIC) was defined as the lowest concentration of the compound at which no visible bacterial growth was observed. In other words, the MIC was the lowest concentration that prevented a visual colour change from blue to pink. The MIC value has been routinely and widely used in bacterial assays and it has been a standard detection limit according to the Clinical and Laboratory Standards Institute. The clinically used antimycobacterial drugs INH and RIF were applied as the standards.

[4] = system: Candida albicans CCM 8261; test: candidacidal MIC, microdilution method; format: cell-based; conditions: Candida albicans, CCM8261, 48 h, 37 °C
Method: (§1) In order to provide a look into the potential usefulness of the derivatives 5a–l as the candidates for a development of anti-yeast (candidacidal) agents, they were in vitro tested against Candida albicans CCM 8261 (CA 8261), C. krusei CCM 8271 (CK 8271) and C. parapsilosis CCM 8260 (CP 8260). The yeasts were obtained from the Czech Collection of Microorganisms (Masaryk University, Faculty of Science, Brno, Czech Republic). They were grown and kept on Sabouraud agar (Oxoid Limited, Basingstoke, UK).
(§2) For the screening, the microdilution method according to the Antimicrobial Susceptibility Testing Protocols was applied. The inoculum was prepared from the cultures grown on Sabouraud agar. With the sterile solution of NaCl, the inoculum was prepared to the 0.5 McFarland units using the Densi-La-Meter densitometer (LIAP, Riga, Latvia) and diluted a thousand‑fold with the Roswell Park Memorial Institute (RPMI) 1640 medium (Sigma-Aldrich, Darmstadt, Germany). Prepared suspension was used for an inoculation of microtitre plates. Final concentration in wells ranged from 5.0 × 10^2 CFU/mL to 2.5 × 10^3 CFU/mL. […] For the determination of the MICs, the stock solutions of all the tested compounds were diluted in the microtitre checkerboard to the final concentration varying from 128 μg/mL to 0.125 μg/mL. Drug-free control, sterility control and the control consisted of a medium and DMSO alone were included. Inoculated microtitre plates were incubated for 48 h in the darkness at 37 °C in an aerobic atmosphere. The results were estimated against static light.
(§3) The MIC was defined as the lowest concentration of the tested compound at which no visible growth was observed. To ensure reproducibility of the results, each candidacidal MIC assay was performed triplicate on separate occasions. It was important to note that all the MICs from the in vitro antimicrobial screening were expressed in μg/mL units and were available in Tables S3 and S4 (Supplementary Materials).

Candida krusei CCM 8271 = test: candidacidal MIC, microdilution method; format: cell-based; conditions: Pichia kudriavzevii, CCM8271, 48 h, 37 °C
Method: as §1, §2, §3

[5] = system: Candida parapsilosis CCM 8260; test: candidacidal MIC, microdilution method; format: cell-based; conditions: Lodderomyces parapsilosis, CCM8260, 48 h, 37 °C
Method: as §1, §2, §3

M. kansasii DSM 44162 = test: antimycobacterial MIC, broth dilution micromethod; format: cell-based; conditions: Mycobacterium kansasii, DSM44162, 168 h, 7 days at 37 °C
[6] = system: Escherichia coli ATCC 25922; test: antibacterial MIC, microtitration broth method; format: cell-based; conditions: 37 °C
Method: (§4) Prior to the testing, each strain was transferred into a nutrient agar (Oxoid Limited, Basingstoke, UK), which was enriched with 5% defibrinated bovine blood.
(§5) The MICs were determined by the microtitration broth method in the cation-adjusted Mueller-Hinton broth (Becton Dickinson, Oxford, UK) according to an international interdisciplinary Clinical Laboratory Standard Institute guidelines.
(§6) The checkerboard was inoculated by the bacterial inocula, which were prepared in a phosphate buffered saline solution with the pH = 7.2–7.3 to simulate physiological pH. The final concentration of each inoculum in the final volume of 100 μL in the wells was approximately 7.5 × 10^6 CFU/mL. Drug-free controls, sterility controls and the controls consisted of the broth with DMSO were included. The determination of the results was performed visually after 24 h of static incubation in the darkness at 37 °C in an aerobic atmosphere.
(§7) To ensure reproducibility, each antibacterial MIC assay was performed triplicate on separate occasions.

[7] = system: Enterococcus faecalis ATCC 29212; test: antibacterial MIC, microtitration broth method; format: cell-based; conditions: 37 °C
Method: as §4, §5, §6, §7

[8] = system: Staphylococcus aureus ATCC 29213; test: antibacterial MIC, microtitration broth method; format: cell-based; conditions: 37 °C
Method: as §4, §5, §6, §7

[9] = system: methicillin-resistant Staphylococcus aureus 63718; test: antibacterial MIC, microtitration broth method; format: cell-based; conditions: MRSA, 37 °C
Method: as §4, §5, §6, §7

M. smegmatis ATCC 700084 = test: antimycobacterial MIC, broth dilution micromethod; format: cell-based; conditions: Mycolicibacterium smegmatis, ATCC700084, 72 h, 3 days at 37 °C
M. marinum CAMP 5644 = test: antimycobacterial MIC, broth dilution micromethod; format: cell-based; conditions: Mycobacterium marinum, CAMP5644, 504 h, 21 days at 28 °C

Structure (SMILES)	log Pexp [1]	pKa [2]	MIC ([3]; 37 °C, 11 days) [µM]	MIC [3] [µg/mL]	MIC [4] [µM]	MIC ([4]; Table S4) [µg/mL]	MIC (Candida krusei CCM 8271) [µM]	MIC (Candida krusei CCM 8271; Table S4) [µg/mL]	MIC [5] [µM]	MIC ([5]; Table S4) [µg/mL]	MIC (M. kansasii DSM 44162) [µM]	MIC (M. kansasii DSM 44162; Table S3) [µg/mL]	MIC ([6]; ATCC25922, 24 h) [µM]	MIC ([6]; ATCC25922, Table S4, 24 h) [µg/mL]	MIC ([7]; ATCC29212, 24 h) [µM]	MIC ([7]; ATCC29212, Table S4, 24 h) [µg/mL]	MIC ([8]; ATCC29213, 24 h) [µM]	MIC ([8]; ATCC29213, Table S4, 24 h) [µg/mL]	MIC ([9]; 24 h) [µM]	MIC ([9]; Table S4, 24 h) [µg/mL]	further results
CCOc1cccc(NC(=O)OCC(O)CN2CCN(c3ccc(F)cc3)CC2)c1.Cl (stereo not drawn) [Compound 5j, 1-[3-(3-ethoxyphenylcarbamoyl)oxy-2-hydroxypropyl]-4-(4-fluorophenyl)piperazin-1-ium chloride]	3.59	6.31	551	250	> 282	> 128	> 282	> 128	> 282	> 128	17.6	8	> 564	> 256	> 564	> 256	> 564	> 256	> 564	> 256	MIC (M. smegmatis ATCC 700084): 282 µM; MIC (M. smegmatis ATCC 700084; Table S3): 128 µg/mL; MIC (M. marinum CAMP 5644): 141 µM; MIC (M. marinum CAMP 5644; Table S3): 64 µg/mL
CCOc1ccc(NC(=O)OCC(O)CN2CCN(c3ccc(F)cc3)CC2)cc1 (stereo not drawn) [Compound 5l]	3.28	7.18	2200	1000	> 282	> 128	> 282	> 128	> 282	> 128	564	256	> 564	> 256	> 564	> 256	> 564	> 256	> 564	> 256	MIC (M. smegmatis ATCC 700084): 564 µM; MIC (M. smegmatis ATCC 700084; Table S3): 256 µg/mL; MIC (M. marinum CAMP 5644): 282 µM; MIC (M. marinum CAMP 5644; Table S3): 128 µg/mL
CCOc1ccccc1NC(=O)OCC(O)CN1CCN(c2ccc(F)cc2)CC1 (stereo not drawn) [Compound 5h]	3.90	6.58	1100	500	> 282	> 128	> 282	> 128	> 282	> 128	282	128	> 564	> 256	> 564	> 256	> 564	> 256	> 564	> 256	MIC (M. smegmatis ATCC 700084): 564 µM; MIC (M. smegmatis ATCC 700084; Table S3): 256 µg/mL; MIC (M. marinum CAMP 5644): 282 µM; MIC (M. marinum CAMP 5644; Table S3): 128 µg/mL
